Measured values from patent US8754226B2, “Piperidinyl-substituted lactams as GPR119 modulators” (Array BioPharma Inc., priority 2010, dated 2014).

Test system: modified version of the GPR119 receptor (94% identity to human receptor)
Test: cAMP production assay (LANCE cAMP kit, TR-FRET) in HEK-293 cells
Assay type: cell-based
Conditions: for cAMP production in HEK-293 cells: HEK-293 cells stably expressing modified GPR119, test compounds 0.2 nM to 10 μM, one-hour incubation at ambient temperature; for Fold over baseline: increase in cAMP relative to basal levels, agonist activity if 1.5-fold or greater
Procedure: The assay utilized HEK-293 cells that stably express a modified version of the GPR119 receptor (94% identity to human receptor), under the control of a CMV promoter containing a tet-on element for tetracycline-inducible expression. GPR119 agonist-induced cyclic AMP (cAMP) production was measured in this cell line using the LANCE cAMP kit (Perkin Elmer, Waltham, Mass.). To generate a working stock of cells for the assay, cells were treated overnight with 1 μg/mL doxycycline at 37° C. in the presence of 5% CO2 to induce receptor expression. Cells were then harvested by enzymatic dissociation with 0.05% trypsin, resuspended in freezing medium (DMEM growth medium with 10% each of fetal bovine serum and DMSO), aliquoted and frozen at −80° C. On the day of the assay, frozen cells were thawed, washed 1× in PBS and resuspended in Hank's buffered salt solution (HBSS) containing 5 mM HEPES, 0.1% BSA and Alexa Fluor 647-conjugated anti-cAMP antibody (diluted 1:100). The cell suspension was then transferred to a Proxiplate Plus white 384-well assay plate (Perkin-Elmer) at 2000 cells/well. Test compounds at final concentrations ranging from 0.2 nM to 10 μM were added to the assay plate, followed by a one-hour incubation at ambient temperature (volume=10 μL/well). DMSO concentration was held constant at 0.5%. After incubation with test compounds, 10 μL of a detergent buffer containing a biotinylated cAMP/Europium-conjugated streptavidin complex (Europium-labeled cAMP tracer) were added to each well on the assay plate, followed by a 2-hour incubation at ambient temperature. During this incubation cAMP released from lysed cells competes with the Europium-labeled cAMP tracer for binding to the Alexa Fluor 647-conjugated antibody. […] Cellular cAMP levels were then determined by interpolation of raw signal data using a cAMP standard curve. Compounds were determined to have agonist activity if they stimulated a 1.5-fold or greater increase in cAMP relative to basal levels.

Row | SMILES | cAMP production in HEK-293 cells [nmol] | Fold over baseline
1 | CCc1cnc(N2CCC(N3CC[C@H](Nc4ccc(S(=O)(=O)CC)cc4F)C3=O)CC2)nc1 [Example 34, (S)-1-(1-(5-ethylpyrimidin-2-yl)piperidin-4-yl)-3-(4-(ethylsulfonyl)-2-fluorophenylamino)pyrrolidin-2-one] | 11.4 | 2.8
2 | CCc1cnc(N2CCC(N3CC[C@H](Nc4ccc(S(C)(=O)=O)cc4F)C3=O)CC2)nc1 [Example 19, (S)-1-(1-(5-ethylpyrimidin-2-yl)piperidin-4-yl)-3-(2-fluoro-4 (methylsulfonyl)phenylamino) pyrrolidin-2-one] | 9.9 | 2.1
3 | CS(=O)(=O)c1cc(F)c(O[C@H]2CCCN(C3CCN(c4ncc(C(F)(F)F)cc4F)CC3)C2=O)cc1F [Example 163, (S)-3-(2,5-difluoro-4-(methylsulfonyl)phenoxy)-1′-(3-fluoro-5-(trifluoromethyl)pyridin-2-yl)-[1,4′-bipiperidin]-2-one] | 18.3 | 3.9
4 | CSc1cnc(N2CCC(N3CC[C@H](Nc4ccc(S(C)(=O)=O)cc4F)C3=O)CC2)nc1 [Example 30, (S)-3-(2-fluoro-4-(methylsulfonyl)phenylamino)-1-(1-(5-(methylthio)pyrimidin-2-yl)piperidin-4-yl)pyrrolidin-2-one] | 6.6 | 2.0
5 | CS(=O)(=O)c1ccc(O[C@H]2CCN(C3CCN(c4ncc(C(F)(F)F)cc4F)CC3)C2=O)c(F)c1 [Example 138, (S)-3-(2-fluoro-4-(methyl-sulfonyl)phenoxy)-1-(1-(3-fluoro-5-(trifluoro-methyl)pyridin-2-yl)piperidin-4-yl) pyrrolidin-2-one] | 38.6 | 6.7
6 | CN(CCO)C(=O)c1ccc(O[C@H]2CCN(C3CCN(c4ncc(Cl)cc4F)CC3)C2=O)c(F)c1 [Example 154, (S)-4-(1-(1-(5-chloro-3-fluoropyridin-2-yl)piperidin-4-yl)-2-oxopyrrolidin-3-yloxy)-3-fluoro-N-(2-hydroxyethyl)-N-methylbenzamide] | 14.6 | 3.1
7 | N#Cc1ccc(N[C@H]2CCN(C3CCN(c4ncc(C(F)(F)F)cc4Cl)CC3)C2=O)c(F)c1 [Example 152, (S)-4-(1-(1-(3-chloro-5-(trifluoromethyl)pyridin-2-yl)piperidin-4-yl)-2-oxopyrrolidin-3-ylamino)-3-fluorobenzonitrile] | 26.6 | 3.3
8 | CCc1cnc(N2CCC(N3CCCC(Nc4ccc(S(C)(=O)=O)c(F)c4)C3=O)CC2)nc1 (stereo not drawn) [Example 63, 1′-(5-ethylpyrimidin-2-yl)-3-(3-fluoro-4-(methylsulfonyl)phenylamino)-[1,4′-bipiperidin]-2-one] | 16.2 | 3.4
9 | CS(=O)(=O)c1cc(F)c(O[C@H]2CCN(C3CCN(c4ncc(-c5ncccn5)cn4)CC3)C2=O)cc1F [Example 95, (S)-1-(1-(2,5′-bipyrimidin-2′-yl)piperidin-4-yl)-3-(2,5-difluoro-4-(methylsulfonyl)phenoxy)pyrrolidin-2-one] | 9.0 | 2.3
10 | CS(=O)(=O)c1cc(F)c(N[C@H]2CCN(C3CCN(c4ncc(Cl)cn4)CC3)C2=O)cc1F [Example 6, (S)-3-(2,5-difluoro-4-(methyl-sulfonyl)phenylamino)-1-(1-(5-chloropyrimidin-2-yl)piperidin-4-yl)pyrrolidin-2-one] | 9.2 | 1.8
11 | CS(=O)(=O)c1ccc(N[C@H]2CCCN(C3CCN(c4cnc(Cl)cn4)CC3)C2=O)c(F)c1 [Example 44, (S)-1′-(5-chloropyrazin-2-yl)-3-(2-fluoro-4-(methylsulfonyl)phenylamino)-[1,4′-bipiperidin]-2-one] | 20.4 | 4.1
12 | CS(=O)(=O)c1ccc(N[C@H]2CCN(C3CCN(c4ccc(C(F)(F)F)cn4)CC3)C2=O)c(F)c1 [Example 103, (S)-3-(2-fluoro-4-(methyl-sulfonyl)phenylamino)-1-(1-(5-(trifluoromethyl)pyridin-2-yl)piperidin-4-yl)pyrrolidin-2-one] | 15.4 | 2.7
13 | O=C1C(Oc2ccc(-n3cnnn3)nc2)CCN1C1CCN(c2cnc(Cl)cn2)CC1 (stereo not drawn) [Example 67, 3-(6-(1H-tetrazol-1-yl)pyridin-3-yloxy)-1-(1-(5-chloropyrazin-2-yl)piperidin-4-yl)pyrrolidin-2-one] | 15.6 | 2.9
14 | CCc1cnc(N2CCC(N3CC[C@H](Oc4ccc(-n5nnnc5C)cc4)C3=O)CC2)nc1 [Example 70, (S)-1-(1-(5-ethylpyrimidin-2-yl)piperidin-4-yl)-3-(4-(5-methyl-1H-tetrazol-1-yl)phenoxy)pyrrolidin-2-one] | 6.1 | 1.8
15 | Cc1nnc(-c2ccc(O[C@H]3CCN(C4CCN(c5cnc(Cl)cn5)CC4)C3=O)c(F)c2)o1 [Example 71, (S)-1-(1-(5-chloropyrazin-2-yl)piperidin-4-yl)-3-(2-fluoro-4-(5-methyl-1,3,4-oxadiazol-2-yl)phenoxy)pyrrolidin-2-one] | 17.6 | 5.6
16 | CS(=O)(=O)c1ccc(N[C@H]2CCN(C3CCN(c4ncc(-c5ccccc5)cn4)CC3)C2=O)c(F)c1 [Example 9, (S)-3-(2-fluoro-4-(methyl-sulfonyl)phenylamino)-1-(1-(5-phenylpyrimidin-2-yl)piperidin-4-yl)pyrrolidin-2-one] | 13.5 | 2.3
17 | COc1cnc(N2CCC(N3CC[C@H](Nc4ccc(S(C)(=O)=O)cc4F)C3=O)CC2)cn1 [Example 160, (S)-3-(2-fluoro-4-(methylsulfonyl)phenylamino)-1-(1-(5-methoxypyrazin-2-yl)piperidin-4-yl)pyrrolidin-2-one] | 22.3 | 3.9
18 | CS(=O)(=O)c1ccc(N[C@H]2CCCN(C3CCN(c4ncc(C(F)(F)F)cc4Cl)CC3)C2=O)c(F)c1 [Example 145, (S)-1′-(3-chloro-5-(trifluoromethyl)pyridin-2-yl)-3-(2-fluoro-4-(methylsulfonyl)phenyl-amino)-1,4′-bipiperidin-2-one] | 28.3 | 2.1
19 | CS(=O)(=O)c1cc(F)c(N[C@H]2CCN(C3CCN(c4ncc(C(F)(F)F)cc4F)CC3)C2=O)c(F)c1 [Example 117, (S)-3-(2,6-difluoro-4-(methylsulfonyl)phenyl-amino)-1-(1-(3-fluoro-5-(trifluoromethyl)pyridin-2-yl)piperidin-4-yl)pyrrolidin-2-one] | 31.1 | 4.0
20 | CCc1cnc(N2CCC(N3CC[C@H](Nc4c(F)cc(S(C)(=O)=O)cc4F)C3=O)CC2)nc1 [Example 21, (S)-3-(2,6-difluoro-4-(methylsulfonyl)phenylamino)-1-(1-(5-ethylpyrimidin-2-yl)piperidin-4-yl)pyrrolidin-2-one] | 6.6 | 1.9
21 | CS(=O)(=O)c1ccc(N[C@H]2CCN(C3CCN(c4cnc(C#N)cn4)CC3)C2=O)c(F)c1 [Example 14, (S)-5-(4-(3-(2-fluoro-4-(methylsulfonyl)phenylamino)-2-oxopyrrolidin-1-yl)piperidin-1-yl)pyrazine-2-carbonitrile] | 32.3 | 5.5
22 | CS(=O)(=O)c1ccc(N[C@H]2CCN(C3CCN(c4ncc(Cl)cc4F)CC3)C2=O)c(F)c1 [Example 115, (S)-1-(1-(5-chloro-3-fluoropyridin-2-yl)piperidin-4-yl)-3-(2-fluoro-4-(methylsulfonyl)phenyl-amino)pyrrolidin-2-one] | 15.4 | 3.8
23 | CCCCCCCCCCc1cnc(N2CCC(N3CCC[C@H](Nc4cc(F)c(S(C)(=O)=O)cc4F)C3=O)CC2)nc1 [Example 46, (S)-1′-(5-decylpyrimidin-2-yl)-3-(2,5-difluoro-4-(methylsulfonyl)phenylamino)-[1,4′-bipiperidin]-2-one] | 10.7 | 2.2
24 | CCc1cnc(N2CCC(N3CCC[C@H](Nc4cc5c(cc4F)S(=O)(=O)CC5)C3=O)CC2)nc1 [Example 73, (S)-1′-(5-ethylpyrimidin-2-yl)-3-((6-fluoro-1,1-dioxido-2,3-dihydrobenzo[b]thiophen-5-yl)amino)-[1,4′-bipiperidin]-2-one] | 14.4 | 3.0
